In patent US11254688B2 (Boehringer Ingelheim International GmbH, priority 2018, dated 2022):

target: T1, hGOAT (Homo sapiens, UniProt Q96T53); test: Determination of hGOAT activity in HEK293 cells after incubation with test compound (acyl-ghrelin ELISA); assay type: cell-based; details: HEK293 cells stably transfected with preproghrelin and human GOAT; octanoate-BSA 100 μM; 5 hours incubation; acyl-ghrelin in medium by ELISA; 8 compound concentrations
T1 construct: expressed in transfected cells; host or cells: HEK293 (Hek293 hGOAT/PPGhrl Clone #1B8)
T1 sequence (Q96T53 1-435): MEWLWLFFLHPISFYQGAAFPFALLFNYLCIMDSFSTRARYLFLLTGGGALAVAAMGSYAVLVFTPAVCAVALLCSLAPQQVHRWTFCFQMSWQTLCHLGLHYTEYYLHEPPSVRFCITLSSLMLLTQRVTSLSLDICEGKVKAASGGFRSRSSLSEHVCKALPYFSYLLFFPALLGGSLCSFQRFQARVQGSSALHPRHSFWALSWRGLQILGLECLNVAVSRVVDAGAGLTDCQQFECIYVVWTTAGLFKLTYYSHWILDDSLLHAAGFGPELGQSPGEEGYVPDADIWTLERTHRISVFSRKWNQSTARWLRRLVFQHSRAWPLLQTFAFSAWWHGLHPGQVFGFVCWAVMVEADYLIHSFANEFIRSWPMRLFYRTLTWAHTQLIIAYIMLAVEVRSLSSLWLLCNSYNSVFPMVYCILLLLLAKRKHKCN

IC50 [nM]	Compound
0.068	Nc1c(Cc2ccc(OC(F)(F)F)cc2)c(CF)nc2nonc12 [Compound 11.1, 5-(Fluoromethyl)-6-{[4-(trifluoromethoxy)phenyl]methyl}-[1,2,5]oxadiazolo[3,4-b]pyridin-7-amine]
0.519	Cc1nc2nonc2c(N)c1Cc1ccnc(OC(F)(F)F)c1 [Compound 4.56, 5-Methyl-6-{[2-(trifluoromethoxy)pyridin-4-yl]methyl}-[1,2,5]oxadiazolo[3,4-b]pyridin-7-amine]
3.06	Cc1nc2nonc2c(N)c1Cc1ccc(C(=O)NC2CCN(C)C2=O)cc1 (centres unmarked) [Compound 14.9, 4-({7-Amino-5-methyl-[1,2,5]oxadiazolo[3,4-b]pyridin-6-yl}methyl)-N-(1-methyl-2-oxopyrrolidin-3-yl)benzamide]
6.27	Cc1nc2nonc2c(N)c1Cc1ccnc(Cl)c1 [Compound 4.55, 6-[(2-Chloropyridin-4-yl)methyl]-5-methyl-[1,2,5]oxadiazolo[3,4-b]pyridin-7-amine]
0.402	COc1cc(Cc2c(C)nc3nonc3c2N)ccc1C#N [Compound 2.5, 4-({7-Amino-5-methyl-[1,2,5]oxadiazolo[3,4-b]pyridin-6-yl}methyl)-2-methoxybenzonitrile]
